Source: patent US8563261B2, “Method of diagnosing and treating interstitial cystitis” (The Trustees of the University of Pennsylvania, priority 2009, dated 2013)
“Also recorded” adds a separate entry of the source.

Tests used:
[1] = tested on: rabbit primary urothelial cells; conditions: ET-1 at 20 μM
Description: Briefly, explanted epithelial cells propagated from fresh biopsy specimens are grown in DMEM-F12 with 10% heat-inactivated fetal bovine serum, 1% antibiotic/antimycotic, 1% L-glutamine, 1.0 unit/ml insulin (all from Sigma), and 5 μg/ml human epidermal growth factor at 37° C. in a humidified atmosphere of 5% CO2 and 95% air. […] Cell proliferation is assessed also by ^3H-thymidine incorporation and by cell counting using a haemocytometer. ET-1 samples are diluted at varying concentrations in serum-free MEM (containing only glutamine and antibiotics) and applied to cells. Control cultures receive only the vehicle. Cells are fed with serum-free medium for the proliferation assay.
Cultures are exposed to 1 μCi per well ^3H-thymidine (1 Ci=37 GiBg) for 4 hrs and trypsinized, sedimented by brief centrifugation (3,000 rpm for 10 min) and the cell pellets are washed with a buffer containing cold thymidine and the radioactivity determined using a scintillation counter. The ^3H-thymidine incorporation is expressed as a mean decrease in cpm of >2 SD from the mean of control cells for each plate. […] After developing the autoradiographs in D-19 (15° C.) and fixation, culture plates are stained with H &E. Cultures are examined under a light microscope and the number of cells showing silver grains in the nuclei from 10 selected fields on the culture plate are counted. […]

[2] = tested on: cultured urothelial cells; experiment: Click-iT EdU assay of newly synthesized DNA; assay type: cell-based; conditions: ET-1 10 nM (25 ng/ml) vs control
Excerpt: Click-iT EdU assay (Invitrogen) was used to detect and quantify newly synthesized DNA. […] In Click-iT assay, EdU can be detected by green fluorescent dye and nuclei can be detected by blue fluorescent dye. Using fluorescent microplate reader (Synergy2, BioTek) both green and blue fluorescent signal were detected and quantified as shown in the bar graph of FIG. 3).

[3] = tested on: human primary urothelial cells; experiment: growth of cultured human primary urothelial cells (proliferation assay); assay type: cell-based; conditions: 20 μM ET-1
Excerpt: Control cultures receive only the vehicle.

CC[C@H](C)[C@H](NC(=O)[C@H](CC(=O)O)NC(=O)[C@H](CC(C)C)NC(=O)[C@H](Cc1c[nH]cn1)NC(=O)[C@@H]1CSSC[C@H](N)C(=O)N[C@@H](CO)C(=O)N[C@H]2CSSC[C@H](NC(=O)[C@H](CCC(=O)O)NC(=O)[C@H](CCCCN)NC(=O)[C@H](CC(=O)O)NC(=O)[C@H](CCSC)NC(=O)[C@H](CC(C)C)NC(=O)[C@H](CO)NC(=O)[C@H](CO)NC2=O)C(=O)N[C@@H](C(C)C)C(=O)N[C@@H](Cc2ccc(O)cc2)C(=O)N[C@@H](Cc2ccccc2)C(=O)N1)C(=O)N[C@H](C(=O)N[C@@H](Cc1c[nH]c2ccccc12)C(=O)O)[C@@H](C)CC [ET-1, Endothelin-1]
inhibition of growth of rabbit primary urothelial cells [1]: 30-40%
EdU staining (newly synthesized DNA) in cultured urothelial cells [2]: significant decrease
effect on cell growth of cultured human urothelial cells [3]: inhibited; also recorded: inhibition
